Assay results: ChEMBL document CHEMBL1151757, “Synthesis, radiosynthesis, and biological evaluation of fluorine-18-labeled 2beta-carbo(fluoroalkoxy)-3beta-(3'-((Z)-2-haloethenyl)phenyl)nortropanes: candidate radioligands for in vivo imaging of the serotonin transporter with positron emission tomography” (J Med Chem, 2008)

Assays:
[1] = test system: Pons; test: Drug uptake in anesthetized cynomolgus monkey brain pons after 165 mins postinjection; type: ADME, organism-based, Macaca fascicularis; conditions: in vivo, 2.75 h
[2] = Ratio of drug uptake in putamen to cerebellum in anesthetized cynomolgus monkey after 75 mins postinjection; type: ADME, organism-based, Macaca fascicularis; conditions: in vivo, 1.25 h
[3] = test system: Pons; test: Drug uptake in anesthetized cynomolgus monkey brain pons after 175 mins postinjection; type: ADME, organism-based, Macaca fascicularis; conditions: in vivo
[4] = test system: Thalamus; test: Drug uptake in anesthetized cynomolgus monkey brain thalamus after 65 mins postinjection; type: ADME, organism-based, Macaca fascicularis; parameters: unit not given here; conditions: in vivo
[5] = Drug uptake in anesthetized cynomolgus monkey brain cerebellum after 1.5 mins postinjection; type: ADME, organism-based, Macaca fascicularis; conditions: in vivo, 0.025 h
[6] = Drug uptake in anesthetized cynomolgus monkey brain occipital lobe after 235 mins postinjection; type: ADME, organism-based, Macaca fascicularis; conditions: in vivo
[7] = Drug uptake in anesthetized cynomolgus monkey brain cerebellum after 4.5 mins postinjection; type: ADME, organism-based, Macaca fascicularis; conditions: in vivo, 0.075 h
[8] = Drug uptake in anesthetized cynomolgus monkey brain frontal lobe after 35 mins postinjection; type: ADME, organism-based, Macaca fascicularis; conditions: in vivo
[9] = test system: Medulla; test: Drug uptake in anesthetized cynomolgus monkey brain medulla after 115 mins postinjection; type: ADME, organism-based, Macaca fascicularis; conditions: in vivo
[10] = Ratio of drug uptake in pons to cerebellum in anesthetized cynomolgus monkey after 175 mins postinjection; type: ADME, organism-based, Macaca fascicularis; conditions: in vivo
[11] = Drug uptake in anesthetized cynomolgus monkey brain occipital lobe after 125 mins postinjection; type: ADME, organism-based, Macaca fascicularis; conditions: in vivo
[12] = test system: Caudate; test: Drug uptake in anesthetized cynomolgus monkey brain caudate after 3.5 mins postinjection; type: ADME, organism-based, Macaca fascicularis, Caudate nucleus; conditions: in vivo
[13] = Ratio of drug uptake in medulla to cerebellum in anesthetized cynomolgus monkey after 65 mins postinjection; type: ADME, organism-based, Macaca fascicularis; conditions: in vivo
[14] = Drug uptake in anesthetized cynomolgus monkey brain cerebellum after 0.5 mins postinjection; type: ADME, organism-based, Macaca fascicularis; conditions: in vivo
[15] = test system: Thalamus; test: Drug uptake in anesthetized cynomolgus monkey brain thalamus after 145 mins postinjection; type: ADME, organism-based, Macaca fascicularis; parameters: unit not given here; conditions: in vivo
[16] = Ratio of drug uptake in caudate to cerebellum in anesthetized cynomolgus monkey after 12.5 mins postinjection; type: ADME, organism-based, Macaca fascicularis; conditions: in vivo
[17] = test system: Midbrain; test: Drug uptake in anesthetized cynomolgus monkey brain midbrain after 145 mins postinjection; type: ADME, organism-based, Macaca fascicularis; conditions: in vivo
[18] = test system: Putamen; test: Drug uptake in anesthetized cynomolgus monkey brain putamen after 1.5 mins postinjection; type: ADME, organism-based, Macaca fascicularis; conditions: in vivo, 0.025 h
[19] = Drug uptake in anesthetized cynomolgus monkey brain frontal lobe after 4.5 mins postinjection; type: ADME, organism-based, Macaca fascicularis; conditions: in vivo, 0.075 h
[20] = test system: Putamen; test: Drug uptake in anesthetized cynomolgus monkey brain putamen after 65 mins postinjection; type: ADME, organism-based, Macaca fascicularis; parameters: unit not given here; conditions: in vivo
[21] = Ratio of drug uptake in pons to cerebellum in anesthetized cynomolgus monkey after 225 mins postinjection; type: ADME, organism-based, Macaca fascicularis; conditions: in vivo, 3.75 h
[22] = Drug uptake in anesthetized cynomolgus monkey brain occipital lobe after 175 mins postinjection; type: ADME, organism-based, Macaca fascicularis; conditions: in vivo
[23] = Drug uptake in anesthetized cynomolgus monkey brain frontal lobe after 215 mins postinjection; type: ADME, organism-based, Macaca fascicularis; conditions: in vivo
[24] = Drug uptake in anesthetized cynomolgus monkey brain occipital lobe after 1.5 mins postinjection; type: ADME, organism-based, Macaca fascicularis; conditions: in vivo, 0.025 h
[25] = test system: Pons; test: Drug uptake in anesthetized cynomolgus monkey brain pons after 185 mins postinjection; type: ADME, organism-based, Macaca fascicularis; conditions: in vivo
[26] = Drug uptake in anesthetized cynomolgus monkey brain frontal lobe after 55 mins postinjection; type: ADME, organism-based, Macaca fascicularis; conditions: in vivo
[27] = test system: Pons; test: Drug uptake in anesthetized cynomolgus monkey brain pons after 9.5 mins postinjection; type: ADME, organism-based, Macaca fascicularis; conditions: in vivo
[28] = Drug uptake in anesthetized cynomolgus monkey brain frontal lobe after 155 mins postinjection; type: ADME, organism-based, Macaca fascicularis; conditions: in vivo
[29] = Ratio of drug uptake in thalamus to cerebellum in anesthetized cynomolgus monkey after 195 mins postinjection; type: ADME, organism-based, Macaca fascicularis; conditions: in vivo, 3.25 h
[30] = Ratio of drug uptake in medulla to cerebellum in anesthetized cynomolgus monkey after 195 mins postinjection; type: ADME, organism-based, Macaca fascicularis; conditions: in vivo, 3.25 h
[31] = test system: Putamen; test: Drug uptake in anesthetized cynomolgus monkey brain putamen after 205 mins postinjection; type: ADME, organism-based, Macaca fascicularis; conditions: in vivo
[32] = Ratio of drug uptake in midbrain to cerebellum in anesthetized cynomolgus monkey after 22.5 mins postinjection; type: ADME, organism-based, Macaca fascicularis; conditions: in vivo, 0.375 h
[33] = test system: Caudate; test: Drug uptake in anesthetized cynomolgus monkey brain caudate after 27.5 mins postinjection; type: ADME, organism-based, Macaca fascicularis, Caudate nucleus; conditions: in vivo
[34] = test system: Thalamus; test: Drug uptake in anesthetized cynomolgus monkey brain thalamus after 9.5 mins postinjection; type: ADME, organism-based, Macaca fascicularis; parameters: unit not given here; conditions: in vivo
[35] = Ratio of drug uptake in midbrain to cerebellum in anesthetized cynomolgus monkey after 225 mins postinjection; type: ADME, organism-based, Macaca fascicularis; conditions: in vivo, 3.75 h
[36] = test system: Medulla; test: Drug uptake in anesthetized cynomolgus monkey brain medulla after 22.5 mins postinjection; type: ADME, organism-based, Macaca fascicularis; conditions: in vivo, 0.375 h
[37] = test system: Pons; test: Drug uptake in anesthetized cynomolgus monkey brain pons after 85 mins postinjection; type: ADME, organism-based, Macaca fascicularis; conditions: in vivo
[38] = Drug uptake in anesthetized cynomolgus monkey brain occipital lobe after 215 mins postinjection; type: ADME, organism-based, Macaca fascicularis; conditions: in vivo
[39] = test system: Pons; test: Drug uptake in anesthetized cynomolgus monkey brain pons after 135 mins postinjection; type: ADME, organism-based, Macaca fascicularis; conditions: in vivo, 2.25 h
[40] = Drug uptake in anesthetized cynomolgus monkey brain frontal lobe after 6.5 mins postinjection; type: ADME, organism-based, Macaca fascicularis; conditions: in vivo
[41] = Drug uptake in anesthetized cynomolgus monkey brain frontal lobe after 195 mins postinjection; type: ADME, organism-based, Macaca fascicularis; conditions: in vivo, 3.25 h
[42] = test system: Pons; test: Drug uptake in anesthetized cynomolgus monkey brain pons after 115 mins postinjection; type: ADME, organism-based, Macaca fascicularis; conditions: in vivo
[43] = Ratio of drug uptake in putamen to cerebellum in anesthetized cynomolgus monkey after 215 mins postinjection; type: ADME, organism-based, Macaca fascicularis; conditions: in vivo
[44] = test system: Putamen; test: Drug uptake in anesthetized cynomolgus monkey brain putamen after 155 mins postinjection; type: ADME, organism-based, Macaca fascicularis; conditions: in vivo
[45] = Ratio of drug uptake in frontal lobe to cerebellum in anesthetized cynomolgus monkey after 75 mins postinjection; type: ADME, organism-based, Macaca fascicularis; conditions: in vivo, 1.25 h
[46] = Drug uptake in anesthetized cynomolgus monkey brain cerebellum after 12.5 mins postinjection; type: ADME, organism-based, Macaca fascicularis; conditions: in vivo
[47] = test system: Pons; test: Drug uptake in anesthetized cynomolgus monkey brain pons after 4.5 mins postinjection; type: ADME, organism-based, Macaca fascicularis; conditions: in vivo, 0.075 h
[48] = test system: Caudate; test: Drug uptake in anesthetized cynomolgus monkey brain caudate after 155 mins postinjection; type: ADME, organism-based, Macaca fascicularis, Caudate nucleus; conditions: in vivo
[49] = test system: Putamen; test: Drug uptake in anesthetized cynomolgus monkey brain putamen after 18.5 mins postinjection; type: ADME, organism-based, Macaca fascicularis; parameters: unit not given here; conditions: in vivo
[50] = Ratio of drug uptake in frontal lobe to cerebellum in anesthetized cynomolgus monkey after 195 mins postinjection; type: ADME, organism-based, Macaca fascicularis; conditions: in vivo, 3.25 h
[51] = Ratio of drug uptake in thalamus to cerebellum in anesthetized cynomolgus monkey after 27.5 mins postinjection; type: ADME, organism-based, Macaca fascicularis; conditions: in vivo
[52] = Ratio of drug uptake in frontal lobe to cerebellum in anesthetized cynomolgus monkey after 95 mins postinjection; type: ADME, organism-based, Macaca fascicularis; conditions: in vivo
[53] = test system: Caudate; test: Drug uptake in anesthetized cynomolgus monkey brain caudate after 165 mins postinjection; type: ADME, organism-based, Macaca fascicularis, Caudate nucleus; conditions: in vivo, 2.75 h
[54] = Drug uptake in anesthetized cynomolgus monkey brain occipital lobe after 15.5 mins postinjection; type: ADME, organism-based, Macaca fascicularis; conditions: in vivo
[55] = Drug uptake in anesthetized cynomolgus monkey brain cerebellum after 95 mins postinjection; type: ADME, organism-based, Macaca fascicularis; conditions: in vivo
[56] = test system: Thalamus; test: Drug uptake in anesthetized cynomolgus monkey brain thalamus after 18.5 mins postinjection; type: ADME, organism-based, Macaca fascicularis; parameters: unit not given here; conditions: in vivo
[57] = Ratio of drug uptake in caudate to cerebellum in anesthetized cynomolgus monkey after 55 mins postinjection; type: ADME, organism-based, Macaca fascicularis; conditions: in vivo
[58] = Drug uptake in anesthetized cynomolgus monkey brain frontal lobe after 3.5 mins postinjection; type: ADME, organism-based, Macaca fascicularis; conditions: in vivo
[59] = Drug uptake in anesthetized cynomolgus monkey brain cerebellum after 165 mins postinjection; type: ADME, organism-based, Macaca fascicularis; conditions: in vivo, 2.75 h
[60] = Drug uptake in anesthetized cynomolgus monkey brain occipital lobe after 145 mins postinjection; type: ADME, organism-based, Macaca fascicularis; conditions: in vivo
[61] = test system: Putamen; test: Drug uptake in anesthetized cynomolgus monkey brain putamen after 75 mins postinjection; type: ADME, organism-based, Macaca fascicularis; parameters: unit not given here; conditions: in vivo, 1.25 h
[62] = Ratio of drug uptake in midbrain to cerebellum in anesthetized cynomolgus monkey after 95 mins postinjection; type: ADME, organism-based, Macaca fascicularis; conditions: in vivo
[63] = Drug uptake in anesthetized cynomolgus monkey brain occipital lobe after 165 mins postinjection; type: ADME, organism-based, Macaca fascicularis; conditions: in vivo, 2.75 h
[64] = test system: Medulla; test: Drug uptake in anesthetized cynomolgus monkey brain medulla after 6.5 mins postinjection; type: ADME, organism-based, Macaca fascicularis; conditions: in vivo
[65] = Ratio of drug uptake in pons to cerebellum in anesthetized cynomolgus monkey after 145 mins postinjection; type: ADME, organism-based, Macaca fascicularis; conditions: in vivo
[66] = Drug uptake in anesthetized cynomolgus monkey brain cerebellum after 235 mins postinjection; type: ADME, organism-based, Macaca fascicularis; conditions: in vivo
[67] = test system: Thalamus; test: Drug uptake in anesthetized cynomolgus monkey brain thalamus after 195 mins postinjection; type: ADME, organism-based, Macaca fascicularis; conditions: in vivo, 3.25 h
[68] = test system: Thalamus; test: Drug uptake in anesthetized cynomolgus monkey brain thalamus after 0.5 mins postinjection; type: ADME, organism-based, Macaca fascicularis; conditions: in vivo

In the case of O=C(OCC[18F])C1C2CCC(CC1c1cccc(/C=C\Br)c1)N2 (stereo not drawn), the Drug uptake [1] is reported as 3.9, the Ratio [2] is reported as 1.5 and the Drug uptake [3] is reported as 3.72. The Drug uptake [4] was 4.51, the Drug uptake [5] was 0.06 and the Drug uptake [6] was 1.94. The Drug uptake [7] was 1.76, the Drug uptake [8] was 2.78 and the Drug uptake [9] was 4.28. The Ratio [10] was 1.8, the Drug uptake [11] was 3.07 and the Drug uptake [12] was 0.63. For the same molecule, the Ratio [13] was 1.4, the Drug uptake [14] was 0 and the Drug uptake [15] was 3.86. The Ratio [16] was 0.8, the Drug uptake [17] was 4.65 and the Drug uptake [18] was 0.06. It also gave a Drug uptake [19] of 1.02, a Drug uptake [20] of 5.1 and a Ratio [21] of 1.7. The Drug uptake [22] was 2.42, the Drug uptake [23] was 1.97 and the Drug uptake [24] was 0.06. For the same molecule, the Drug uptake [25] was 3.6, the Drug uptake [26] was 2.8 and the Drug uptake [27] was 3.15. For the same molecule, the Drug uptake [28] was 2.46, the Ratio [29] was 1.8 and the Ratio [30] was 1.9. For the same molecule, the Drug uptake [31] was 3.42, the Ratio [32] was 1.1 and the Drug uptake [33] was 3.3. For the same molecule, the Drug uptake [34] was 2.83, the Ratio [35] was 2.3 and the Drug uptake [36] was 4.7. For the same molecule, the Drug uptake [37] was 4.29, the Drug uptake [38] was 2.01 and the Drug uptake [39] was 4.26. It also gave a Drug uptake [40] of 1.75, a Drug uptake [41] of 2.18 and a Drug uptake [42] of 4.51. For the same molecule, the Ratio [43] was 1.8, the Drug uptake [44] was 4.01 and the Ratio [45] was 0.9. It also gave a Drug uptake [46] of 3.41, a Drug uptake [47] of 1.78 and a Drug uptake [48] of 3.47. It also gave a Drug uptake [49] of 4.37, a Ratio [50] of 1.2 and a Ratio [51] of 1. It also gave a Ratio [52] of 0.9, a Drug uptake [53] of 3.44 and a Drug uptake [54] of 2.99. For the same molecule, the Drug uptake [55] was 3.05, the Drug uptake [56] was 3.32 and the Ratio [57] was 1.1. It also gave a Drug uptake [58] of 0.62, a Drug uptake [59] of 2.18 and a Drug uptake [60] of 2.74. For the same molecule, the Drug uptake [61] was 5, the Ratio [62] was 1.6 and the Drug uptake [63] was 2.5. The Drug uptake [64] was 3.64, the Ratio [65] was 1.8 and the Drug uptake [66] was 1.62. It also gave a Drug uptake [67] of 3.18 and a Drug uptake [68] of 0.
